The record followed here is ChEMBL document CHEMBL5236600, “Identification of a Novel Potent CYP4Z1 Inhibitor Attenuating the Stemness of Breast Cancer Cells through Lead Optimization” (J Med Chem, 2022).

One may read the inhibition as the percentage by which the read-out fell short of the control.

SMILES strings stand for the structures.

Test [1] concerns the target T1, Cytochrome P450 4Z1 (Homo sapiens, UniProt Q86W10).
T1 sequence (Q86W10 whole entry): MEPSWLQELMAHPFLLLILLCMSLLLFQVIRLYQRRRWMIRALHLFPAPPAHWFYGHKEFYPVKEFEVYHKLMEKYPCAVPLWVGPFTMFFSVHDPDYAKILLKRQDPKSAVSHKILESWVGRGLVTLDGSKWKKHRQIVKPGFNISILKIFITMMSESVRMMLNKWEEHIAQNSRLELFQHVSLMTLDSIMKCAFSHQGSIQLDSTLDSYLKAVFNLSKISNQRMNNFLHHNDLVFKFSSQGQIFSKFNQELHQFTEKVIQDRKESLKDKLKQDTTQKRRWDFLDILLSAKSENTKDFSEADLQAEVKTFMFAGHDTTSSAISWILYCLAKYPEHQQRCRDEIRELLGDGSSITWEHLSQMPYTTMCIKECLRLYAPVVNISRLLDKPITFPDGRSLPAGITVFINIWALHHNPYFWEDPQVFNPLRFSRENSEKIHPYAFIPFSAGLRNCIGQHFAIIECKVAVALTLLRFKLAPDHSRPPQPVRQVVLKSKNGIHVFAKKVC
Briefly: Inhibition of CYP4Z1 in human HEK293T cells using Luciferin-BE as substrate at 1 uM incubated for 30 mins in presence of NADPH by luminescence based assay relative to control. The note with it: HEK-293T, 0.5 h. The class given is ADME, cell-based.

For test [2], the target named is T1, Cytochrome P450 4Z1. The test can be described thus: Inhibition of CYP4Z1 in human HEK293T cells using Luciferin-BE as substrate at 10 uM incubated for 30 mins in presence of NADPH by luminescence based assay relative to control. The class given is ADME, cell-based. The note with it: HEK-293T, 0.5 h.

`CCCCc1ccc(N/C=N/O)cc1`: the inhibition at 1 µM in test [1] came out at 54.2%. Moreover, the inhibition at 10 µM in test [2] is 84.3%.

With `O=C(O)Cc1ccc(N/C=N/O)cc1`, in test [1], the inhibition at 1 µM was 36.5%. Further, the inhibition at 10 µM in test [2] is 54.3%.
